Results from patent publication US11370798B2 (Vertex Pharmaceuticals Incorporated, priority 2012, dated 2022).

System: HCT116 colorectal cancer cells
Test: Cisplatin sensitization assay (96 h cell viability MTS);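 further: Test-compound concentration that lowers the Cisplatin IC50 by a set fold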
Assay type: cell-based
Conditions: compound and Cisplatin added simultaneously, Cisplatin sensitization value
Procedure: Compounds can be screened for their ability to sensitize HCT116 colorectal cancer cells to Cisplatin using a 96 h cell viability (MTS) assay. […] Compounds and Cisplatin are then both added simultaneously to the cell media in 2-fold serial dilutions from a top final concentration of 10 μM as a full matrix of concentrations in a final cell volume of 200 μl, and the cells are then incubated at 37° C. in 5% CO2. After 96 h, 40 μl of MTS reagent (Promega G358a) is added to each well and the cells are incubated for 1 h at 37° C. in 5% CO2.
Compounds with a Cisplatin sensitization value of <0.02 μM are marked with “+++.” Compounds with a Cisplatin sensitization value>0.02 μM but <0.2 μM are marked with “++.” Compounds with a Cisplatin sensitization value>0.2 μM but <5 μM are marked with “+.”

Structure (SMILES) | Cisplatin Sensitization Assay
C[N+]1([O-])CCc2c(cncc2NC(=O)c2c(N)nn3cc(F)cnc23)C1 (stereo not drawn) [I-C-9, 5-(2-amino-6-fluoropyrazolo[1,5-a]pyrimidine-3-carboxamido)-2-methyl-1,2,3,4-tetrahydro-2,7-naphthyridine 2-oxide] | + (Cisplatin sensitization value>0.2 μM but <5 μM)
N#CCc1cnc2c(C(=O)Nc3cnccc3OC3COC3)c(N)nn2c1 [I-O-38, 2-amino-6-(cyanomethyl)-N-(4-(oxetan-3-yloxy)pyridin-3-yl)pyrazolo[1,5-a]pyrimidine-3-carboxamide] | +++ (Cisplatin sensitization value of <0.02 μM)
COc1cncc(NC(=O)c2c(N)nn3cc(F)cnc23)c1-c1cccnc1 [I-C-82, 2-amino-6-fluoro-N-(5′-methoxy-[3,4′-bipyridin]-3′-yl)pyrazolo[1,5-a]pyrimidine-3-carboxamide] | +++ (Cisplatin sensitization value of <0.02 μM)
CN1CCCCC1C(=O)N1CCN(c2c(F)cncc2NC(=O)c2c(N)nn3cc(F)cnc23)CC1 (stereo not drawn) [I-N-173, 2-amino-6-fluoro-N-(5-fluoro-4-(4-(1-methylpiperidine-2-carbonyl)piperazin-1-yl)pyridin-3-yl)pyrazolo[1,5-a]pyrimidine-3-carboxamide] | +++ (Cisplatin sensitization value of <0.02 μM)
Nc1nn2cc(F)cnc2c1C(=O)Nc1cncc(F)c1N1CCC(C(=O)N2CC3CNCC3C2)CC1 (stereo not drawn) [I-G-51, 2-amino-6-fluoro-N-(5-fluoro-4-(4-(octahydropyrrolo[3,4-c]pyrrole-2-carbonyl)piperidin-1-yl)pyridin-3-yl)pyrazolo[1,5-a]pyrimidine-3-carboxamide] | +++ (Cisplatin sensitization value of <0.02 μM)
CCC(C#N)c1cnc2c(C(=O)Nc3cnccc3OC)c(N)nn2c1 (stereo not drawn) [I-O-20, 2-amino-6-(1-cyanopropyl)-N-(4-methoxypyridin-3-yl)pyrazolo[1,5-a]pyrimidine-3-carboxamide] | ++ (Cisplatin sensitization value>0.02 μM but <0.2 μM)
Nc1nn2cc(F)cnc2c1C(=O)Nc1cncc(F)c1N1CCN(C(=O)C2CNCCO2)CC1 (stereo not drawn) [I-N-172, 2-amino-6-fluoro-N-(5-fluoro-4-(4-(morpholine-2-carbonyl)piperazin-1-yl)pyridin-3-yl)pyrazolo[1,5-a]pyrimidine-3-carboxamide] | +++ (Cisplatin sensitization value of <0.02 μM)
Nc1nn2cc(F)cnc2c1C(=O)Nc1cncc(F)c1N1CCC(C(=O)N2CCOCC2)CC1 [I-G-36, 2-amino-6-fluoro-N-(5-fluoro-4-(4-(morpholine-4-carbonyl)piperidin-1-yl)pyridin-3-yl)pyrazolo[1,5-a]pyrimidine-3-carboxamide] | +++ (Cisplatin sensitization value of <0.02 μM)
CN1CCOC2(CCN(c3c(F)cncc3NC(=O)c3c(N)nn4cc(F)cnc34)CC2)C1 [I-N-272, 2-amino-6-fluoro-N-(5-fluoro-4-(4-methyl-1-oxa-4,9-diazaspiro[5.5]undecan-9-yl)pyridin-3-yl)pyrazolo[1,5-a]pyrimidine-3-carboxamide] | +++ (Cisplatin sensitization value of <0.02 μM)
CN1CCC(c2c(F)cncc2NC(=O)c2c(N)nn3cc(F)cnc23)CC1 [I-C-14, 2-amino-6-fluoro-N-(5-fluoro-4-(1-methylpiperidin-4-yl)pyridin-3-yl)pyrazolo[1,5-a]pyrimidine-3-carboxamide] | + (Cisplatin sensitization value>0.2 μM but <5 μM)
CN1CCN2CCN(c3ccncc3NC(=O)c3c(N)nn4cc(Cl)cnc34)CC2C1 (stereo not drawn) [I-N-61, 2-amino-6-chloro-N-(4-(8-methylhexahydro-1H-pyrazino[1,2-a]pyrazin-2(6H)-yl)pyridin-3-yl)pyrazolo[1,5-a]pyrimidine-3-carboxamide] | +++ (Cisplatin sensitization value of <0.02 μM)
CS(=O)(=O)CC1CCN(c2ccncc2NC(=O)c2c(N)nn3cc(F)cnc23)CC1 [I-N-215, 2-amino-6-fluoro-N-(4-(4-((methylsulfonyl)methyl)piperidin-1-yl)pyridin-3-yl)pyrazolo[1,5-a]pyrimidine-3-carboxamide] | +++ (Cisplatin sensitization value of <0.02 μM)
Nc1nn2cc(Cl)cnc2c1C(=O)Nc1cnccc1N1CCC(N2CCOCC2)CC1 [I-N-104, 2-amino-6-chloro-N-(4-(4-morpholinopiperidin-1-yl)pyridin-3-yl)pyrazolo[1,5-a]pyrimidine-3-carboxamide] | +++ (Cisplatin sensitization value of <0.02 μM)
CC(C)(O)CN1CCN(c2c(F)cncc2NC(=O)c2c(N)nn3cc(F)cnc23)CC1 [I-N-139, 2-amino-6-fluoro-N-(5-fluoro-4-(4-(2-hydroxy-2-methylpropyl)piperazin-1-yl)pyridin-3-yl)pyrazolo[1,5-a]pyrimidine-3-carboxamide] | +++ (Cisplatin sensitization value of <0.02 μM)
CN1CCN(S(=O)(=O)C2CCN(c3c(F)cncc3NC(=O)c3c(N)nn4cc(F)cnc34)CC2)CC1 [I-N-166, 2-amino-6-fluoro-N-(5-fluoro-4-(4-((4-methylpiperazin-1-yl)sulfonyl)piperidin-1-yl)pyridin-3-yl)pyrazolo[1,5-a]pyrimidine-3-carboxamide] | +++ (Cisplatin sensitization value of <0.02 μM)
Nc1nn2cc(F)cnc2c1C(=O)Nc1cncc(F)c1N1CCN(C(=O)CN2CCCC2)CC1 [I-N-187, 2-amino-6-fluoro-N-(5-fluoro-4-(4-(2-(pyrrolidin-1-yl)acetyl)piperazin-1-yl)pyridin-3-yl)pyrazolo[1,5-a]pyrimidine-3-carboxamide] | +++ (Cisplatin sensitization value of <0.02 μM)
CC1CN(C)CCN1c1ccncc1NC(=O)c1c(N)nn2cc(Cl)cnc12 (stereo not drawn) [I-N-72, 2-amino-6-chloro-N-(4-(2,4-dimethylpiperazin-1-yl)pyridin-3-yl)pyrazolo[1,5-a]pyrimidine-3-carboxamide] | +++ (Cisplatin sensitization value of <0.02 μM)
Cn1ncnc1-c1ccncc1NC(=O)c1c(N)nn2cc(F)cnc12 [I-C-65, 2-amino-6-fluoro-N-(4-(1-methyl-1H-1,2,4-triazol-5-yl)pyridin-3-yl)pyrazolo[1,5-a]pyrimidine-3-carboxamide] | ++ (Cisplatin sensitization value>0.02 μM but <0.2 μM)
Nc1nn2cc(Cl)cnc2c1C(=O)Nc1cnccc1N1CCC(N2CC(F)(F)C2)CC1 [I-N-108, 2-amino-6-chloro-N-(4-(4-(3,3-difluoroazetidin-1-yl)piperidin-1-yl)pyridin-3-yl)pyrazolo[1,5-a]pyrimidine-3-carboxamide] | +++ (Cisplatin sensitization value of <0.02 μM)
Nc1nn2cc(F)cnc2c1C(=O)Nc1cnccc1N1CCC(C(=O)N2CCOCC2)CC1 [I-G-85, 2-amino-6-fluoro-N-(4-(4-(morpholine-4-carbonyl)piperidin-1-yl)pyridin-3-yl)pyrazolo[1,5-a]pyrimidine-3-carboxamide] | +++ (Cisplatin sensitization value of <0.02 μM)
Nc1nn2cc(Cl)cnc2c1C(=O)Nc1cnccc1N1CCC(N2CCn3cncc3C2)CC1 [I-N-101, 2-amino-6-chloro-N-(4-(4-(5,6-dihydroimidazo[1,5-a]pyrazin-7(8H)-yl)piperidin-1-yl)pyridin-3-yl)pyrazolo[1,5-a]pyrimidine-3-carboxamide] | ++ (Cisplatin sensitization value>0.02 μM but <0.2 μM)
CN1CCN(C(=O)C2CCN(c3c(F)cncc3NC(=O)c3c(N)nn4cc(F)cnc34)CC2)CC1(C)C [I-G-15, 2-amino-6-fluoro-N-(5-fluoro-4-(4-(3,3,4-trimethylpiperazine-1-carbonyl)piperidin-1-yl)pyridin-3-yl)pyrazolo[1,5-a]pyrimidine-3-carboxamide] | +++ (Cisplatin sensitization value of <0.02 μM)
NCC1CCN(c2ccncc2NC(=O)c2c(N)nn3cc(Cl)cnc23)CC1 [I-N-91, 2-amino-N-(4-(4-(aminomethyl)piperidin-1-yl)pyridin-3-yl)-6-chloropyrazolo[1,5-a]pyrimidine-3-carboxamide] | ++ (Cisplatin sensitization value>0.02 μM but <0.2 μM)
Nc1nn2cc(F)cnc2c1C(=O)Nc1cncc(Cl)c1N1CCC(C(=O)N2CCN3CCC2CC3)CC1 [I-G-66, N-(4-(4-(1,4-diazabicyclo[3.2.2]nonane-4-carbonyl)piperidin-1-yl)-5-chloropyridin-3-yl)-2-amino-6-fluoropyrazolo[1,5-a]pyrimidine-3-carboxamide] | +++ (Cisplatin sensitization value of <0.02 μM)
N#CCc1cnc2c(C(=O)Nc3cnccc3N3CCC(O)CC3)c(N)nn2c1 [I-N-83, 2-amino-6-(cyanomethyl)-N-(4-(4-hydroxypiperidin-1-yl)pyridin-3-yl)pyrazolo[1,5-a]pyrimidine-3-carboxamide] | ++ (Cisplatin sensitization value>0.02 μM but <0.2 μM)
CNCCc1cnn(-c2ccncc2NC(=O)c2c(N)nn3cc(F)cnc23)c1 [I-N-8, 2-amino-6-fluoro-N-(4-(4-(2-(methylamino)ethyl)-1H-pyrazol-1-yl)pyridin-3-yl)pyrazolo[1,5-a]pyrimidine-3-carboxamide] | + (Cisplatin sensitization value>0.2 μM but <5 μM)
CN1CC(OC2CCN(c3ccncc3NC(=O)c3c(N)nn4cc(F)cnc34)CC2)C1 [I-N-164, 2-amino-6-fluoro-N-(4-(4-((1-methylazetidin-3-yl)oxy)piperidin-1-yl)pyridin-3-yl)pyrazolo[1,5-a]pyrimidine-3-carboxamide] | +++ (Cisplatin sensitization value of <0.02 μM)
